Data on 43 compounds can be found in US6613772B1, “Substituted 2-aryl-4-amino-chinazolines, method for the production and use thereof as medicaments” (Aventis Pharma Deutschland GmbH, priority 1997, dated 2003).

Molecules are shown by their SMILES.

Broadly, the melting point is the temperature of the solid-liquid transition.

With `COc1cccc(CCNc2nc(-c3ccc(C)cc3)nc3cc(OC)c(OC)cc23)c1.Cl`, the melting point amounted to 256 °C.

`COc1cc2nc(-c3ccc(Cl)cc3)nc(N3CCCCCC3)c2cc1OC` [Example 89, 2-(4-Chlorophenyl)-4-hexamethyleneimino-6,7-dimethoxyquinazoline]: the melting point was found to be 189 °C.

Regarding `COc1cc2c(N3CCN(C)CC3)nc(-c3cc(C(F)(F)F)cc(C(F)(F)F)c3)nc2c(OC)c1OC` [Example 62, 2-(3,5-Bistrifluoromethylphenyl)-4-(4-methylpiperazino)-6,7,8-trimethoxyquinazoline], the melting point came out at 176 °C.

`COc1cc2nc(-c3ccc(Cl)cc3)nc(N3CCSCC3)c2cc1OC` [Example 74, 2-(4-Chlorophenyl)-4-thiomorpholino-6,7-dimethoxyquinazoline] came in with a melting point of 214 °C.

On to `COc1cc2nc(-c3ccc(Cl)cc3)nc(N3CCC(C(N)=O)CC3)c2cc1OC` [Example 88, 2-(4-Chlorophenyl)-4-(4-aminocarbonylpiperidino)-6,7-dimethoxyquinazoline], for which the melting point was 225 °C.

For `COc1cc2nc(-c3ccc(Cl)cc3)nc(NCC(=O)O)c2cc1OC` [Example 34, N-(2-(4-Chlorophenyl)-6,7-dimethoxyquinazolin-4-yl)aminoacetic Acid], the melting point is 270 °C (dec.).

`COc1cc2nc(-c3ccc(Cl)cc3)nc(NCCCN3CCCC3=O)c2cc1OC` [Example 27, 2-(4-Chlorophenyl)-4-(3-(2-oxopyrrolidino)propylamino)-6,7-dimethoxyquinazoline] returned a melting point of 210 °C.

As to `COc1cc2nc(-c3ccc(Cl)cc3)nc(N3C[C@@H](C)O[C@@H](C)C3)c2cc1OC` [Example 90, 2-(4-Chlorophenyl)-4-(cis-2,6-dimethylmorpholino)-6,7-dimethoxyquinazoline], the melting point stood at 223 °C.

The compound `COc1ccccc1N1CCN(c2nc(-c3ccc(Cl)cc3)nc3c(OC)c(OC)c(OC)cc23)CC1` [Example 10, 2-(4-Chlorophenyl)-4-(4-(2-methoxyphenyl)piperazino)-6,7,8-trimethoxyquinazoline] gave a melting point of 157 °C.

Compound `COc1cc2c(N3CCOCC3)nc(-c3cc(C(F)(F)F)cc(C(F)(F)F)c3)nc2c(OC)c1OC` [Example 64, 2-(3,5-Bistrifluoromethylphenyl)-4-morpholino-6,7,8-trimethoxyquinazoline] came in with a melting point of 170 °C.

Turning to `COc1cc2nc(-c3ccc(Cl)cc3)nc(N3CCN(Cc4ccccc4)CC3)c2cc1OC.Cl.Cl`, the melting point was 225 °C.

For the compound `COc1cc2nc(-c3ccc(C)cc3)nc(N3CC(C)OC(C)C3)c2cc1OC` (stereo not shown) [Example 83, 2-(4-Methylphenyl)-4-(2,6-dimethylmorpholino)-6,7-dimethoxyquinazoline], the melting point was 177 °C.

`CCCN(CCC)c1nc(-c2cc(C(F)(F)F)cc(C(F)(F)F)c2)nc2c(OC)c(OC)c(OC)cc12` [Example 82, 2-(3,5-Bistrifluoromethylphenyl)-4-dipropylamino-6,7,8-trimethoxyquinazoline] displayed a melting point of 121 °C.

As for `COc1cc2nc(-c3ccc(C)cc3)nc(N3CC[S+]([O-])CC3)c2cc1OC` [Example 77, 2-(4-Methylphenyl)-4-(1-oxothiomorpholino)-6,7-dimethoxyquinazoline], the melting point worked out at 216 °C.

`COCCCNc1nc(-c2ccc(Cl)cc2)nc2cc(OC)c(OC)cc12` [Example 86, 2-(4-Chlorophenyl)-4-(3-methoxypropylamino)-6,7-dimethoxyquinazoline] registered a melting point of 240 °C.

On to `COc1cc2nc(-c3ccc(C(F)(F)F)cc3)nc(N3CCN(CCO)CC3)c2cc1OC` [Example 43, 2-(4-Trifluoromethylphenyl)-4-(4-(2-hydroxyethyl)piperazino)-6,7-dimethoxyquinazoline], for which the melting point was found to be 176 °C.

`CCCN(CCC)c1nc(-c2ccc(Cl)cc2)nc2cc(OC)c(OC)cc12` [Example 81, 2-(4-Chlorophenyl)-4-dipropylamino-6,7-dimethoxyquinazoline] displayed a melting point of 223 °C.

For `COc1cc2c(NCc3cccnc3)nc(-c3cc(C(F)(F)F)cc(C(F)(F)F)c3)nc2c(OC)c1OC` [Example 65, 2-(3,5-Bistrifluoromethylphenyl)-4-((3-pyridylmethyl)amino)-6,7,8-trimethoxyquinazoline], the melting point came to 229 °C.

In turn, `COc1cc2c(N3CCSCC3)nc(-c3ccc(Cl)cc3)nc2c(OC)c1OC` [Example 66, 2-(4-Chlorophenyl)-4-thiomorpholino-6,7,8-trimethoxyquinazoline] registered a melting point of 174 °C.

As to `COCCCNc1nc(-c2ccc(C)cc2)nc2cc(OC)c(OC)cc12` [Example 84, 2-(4-Methylphenyl)-4-(3-methoxypropylamino)-6,7-dimethoxyquinazoline], the melting point is 162 °C.

For `COc1cc2nc(-c3ccc(C)cc3)nc(NCc3ccccn3)c2cc1OC` [Example 52, 2-(4-Methylphenyl)-4-((2-pyridylmethyl)amino)-6,7-dimethoxyquinazoline], the melting point amounted to 196 °C.

Regarding `COc1cc2nc(-c3ccc(Cl)cc3)nc(N3CCN(CC(=O)N4CCOCC4)CC3)c2cc1OC` [Example 30, 2-(4-Chlorophenyl)-4-(4-(morpholinocarbonylmethyl)piperazino)-6,7-dimethoxyquinazoline], the melting point came out at 198 °C.

In turn, `COc1cc2c(N3CCOCC3)nc(-c3ccc(Cl)cc3)nc2c(OC)c1OC` [Example 55, 2-(4-Chlorophenyl)-4-morpholino-6,7,8-trimethoxyquinazoline] registered a melting point of 153 °C.

`COc1cc2nc(-c3ccc(Cl)cc3)nc(NCCN(C(C)C)C(C)C)c2cc1OC.Cl.Cl` came in with a melting point of 246 °C.

`COc1cc2nc(-c3ccc(C)cc3)nc(NCc3ccncc3)c2cc1OC` [Example 51, 2-(4-Methylphenyl)-4-((4-pyridylmethyl)amino)-6,7-dimethoxyquinazoline] showed a melting point of 208 °C.

`COc1cc2nc(-c3ccc(Cl)cc3)nc(NCCc3ccc(Oc4ccccc4)cc3)c2cc1OC` [Example 46, 2-(4-Chlorophenyl)-4-(2-(4-phenoxyphenyl)ethylamino)-6,7-dimethoxyquinazoline]: the melting point amounted to 216 °C.

In the case of `COc1cc2c(N3CC[S+]([O-])CC3)nc(-c3ccc(Cl)cc3)nc2c(OC)c1OC` [Example 68, 2-(4-Chlorophenyl)-4-(1-oxothiomorpholino)-6,7,8-trimethoxyquinazoline], the melting point was 198 °C.

As to `COC(=O)CNc1nc(-c2ccc(Cl)cc2)nc2cc(OC)c(OC)cc12` [Example 47, 2-(4-Chlorophenyl)-4-((methoxycarbonylmethyl)amino)-6,7-dimethoxyquinazoline], the melting point is 196 °C.

For the compound `COc1cc2c(NCCCn3ccnc3)nc(-c3ccc(Cl)cc3)nc2c(OC)c1OC` [Example 59, 2-(4-Chlorophenyl)-4-(3-(1-imidazolyl)propylamino)-6,7,8-trimethoxyquinazoline], the melting point came to 245 °C.

`COCCNc1nc(-c2ccc(Cl)cc2)nc2c(OC)c(OC)c(OC)cc12` [Example 58, 2-(4-Chlorophenyl)-4-(2-methoxyethylamino)-6,7,8-trimethoxyquinazoline] returned a melting point of 165 °C.

Turning to `COc1cc2nc(-c3ccc(C)cc3)nc(N(C)Cc3cccnc3)c2cc1OC` [Example 97, 2-(4-Methylphenyl)-4-(N-methyl-N-(3-pyridylmethyl)amino)-6,7-dimethoxyquinazoline], the melting point was determined as 165 °C.

The compound `COc1cc2nc(-c3ccc(Cl)cc3)nc(N(C)CCO)c2cc1OC` [Example 41, 2-(4-Chlorophenyl)-4-(N-(2-hydroxyethyl)-N-methylamino)-6,7-dimethoxyquinazoline] returned a melting point of 129 °C.

As to `COc1cc2c(NCCO)nc(-c3ccc(Cl)cc3)nc2c(OC)c1OC.Cl`, the melting point came to 202 °C.

Regarding `COc1cc2nc(-c3ccc(C)cc3)nc(NCCN(C(C)C)C(C)C)c2cc1OC` [Example 40, 2-(4-Methylphenyl)-4-(2-diisopropylaminoethylamino)-6,7-dimethoxyquinazoline], the melting point was found to be 81 °C.

The compound `COc1cc2nc(-c3ccc(C)cc3)nc(NCCc3ccccn3)c2cc1OC` [Example 53, 2-(4-Methylphenyl)-4-((2-(2-pyridyl)ethyl)amino)-6,7-dimethoxyquinazoline] came in with a melting point of 204 °C.

As for `COc1cccc(CNc2nc(-c3ccc(C)cc3)nc3cc(OC)c(OC)cc23)c1.Cl`, the melting point stood at 278 °C.

Regarding `COc1cc2c(NCCO)nc(-c3ccc(Cl)cc3)nc2c(OC)c1OC` [Example 57, 2-(4-Chlorophenyl)-4-(2-hydroxyethylamino)-6,7,8-trimethoxyquinazoline], the melting point came out at 202 °C.

`COc1cc2c(NCc3cccnc3)nc(-c3ccc(Cl)cc3)nc2c(OC)c1OC` [Example 54, 2-(4-Chlorophenyl)-4-((3-pyridylmethyl)amino)-6,7,8-trimethoxyquinazoline] gave a melting point of 262 °C.

`COc1cc2nc(-c3ccc(Cl)cc3)nc(NC3CCN(Cc4ccccc4)CC3)c2cc1OC` [Example 22, 2-(4-Chlorophenyl)-4-((1-benzylpiperidin-4-yl)amino)-6,7-dimethoxyquinazoline] registered a melting point of 252 °C.

`COc1cc2c(N3CCNCC3)nc(-c3ccc(Cl)cc3)nc2c(OC)c1OC` [Example 56, 2-(4-Chlorophenyl)-4-piperazino-6,7,8-trimethoxyquinazoline] yielded a melting point of 156 °C.

On to `COc1cc2nc(-c3ccc(Cl)cc3)nc(N3CC(C)OC(C)C3)c2cc1OC` (stereo not shown) [Example 85, 2-(4-Chlorophenyl)-4-(2,6-dimethylmorpholino)-6,7-dimethoxyquinazoline], for which the melting point was determined as 165 °C.

Regarding `COc1cc2nc(-c3ccc(C(F)(F)F)cc3)nc(N3CCOCC3)c2cc1OC` [Example 50, 2-(4-Trifluoromethylphenyl)-4-morpholino-6,7-dimethoxyquinazoline], the melting point came to 207 °C.

Consider `COc1ccccc1CCNc1nc(-c2ccc(C)cc2)nc2cc(OC)c(OC)cc12` [Example 73, 2-(4-Methylphenyl)-4-(2-(2-methoxyphenyl)ethylamino)-6,7-dimethoxyquinazoline], for which the melting point is 205 °C.
